Holding throughout (type): in vivo
In experiment [1] the test system is Puccinia triticina (PUCCRT). Briefly: Field assessment of Compound I and penthiopyrad on brown rust of wheat (AUDPC % control). Particulars: AUDPC-based, 2 field trials. From the text: (§1) Treatments consisting of the compound of Formula I and fungicide compound penthiopyrad were applied either using individually or as a two-way mixture of penthiopyrad with the compound of Formula I. The compound of Formula I was applied with Agnique BP-420 (50% w/w at 0.3% v/v) at 75 and 150 g ai/ha and Penthiopyrad (Vertisan) was applied at 125 and 200 g ai/ha. Commercial standards used in the studies were Fluxapyroxad (Imtrex), applied at 100 g ai/ha, and Metconazole+Fluxapyroxad (Librax), applied at 161 g ai/ha.
Fungicidal treatments containing the compound of Formula I and penthiopyrad, either individually or as a two-way mixture, were assessed against brown rust of wheat (PUCCRT) in two separate field trials. In the first trial, fungicidal treatments were applied at B37-39 (protectant, approximately 0% infection at application) growth stages of wheat (TRZAW, MV Vanek variety) under natural infection of brown rust. The treatment was part of an experimental trial designed as a randomized complete block with four replications and a plot of approximately 2×3 m. Fungicidal treatments were applied at a water volume of 200 L/ha, using a backpack plot sprayer with a TEEJET QJ90-2XTT110 015 Nozzle.
In the second trial, fungicidal treatments containing the compound of Formula I and penthiopyrad, either individually or as a two-way mixture, were applied at B33 (curative, approximately 6.6% infection at application) growth stage of wheat (TRZAW, Miradoux variety) under natural infection of brown rust. The treatments were part of an experimental trial designed as a randomized complete block with four replications and a plot of approximately 2×3 m. Fungicidal treatments were applied at a water volume of 200 L/ha, using a backpack plot sprayer with a HARDI MD 110-02 Nozzle.
(§2) Disease severity (percentage of visual diseased foliage on whole plot or leaves) in both field trials was recorded following EPPO PP1/26 guideline prescriptions. Area under the disease progress curve (AUDPC) was calculated for each plot in both trials using the sets of recorded severity data. Relative AUDPC (% control based on AUDPC) was calculated as percent of the nontreated control. Final results for the control of brown rust of wheat by the compound of Formula I, penthiopyrad and mixtures are reported as an average of the relative AUDPC calculated over all […] field trials. Statistical analysis was done according to ANOVA and Tukey's test (p=0.10).

The subject of experiment [2] is Puccinia striiformis (PUCCST). Briefly: Field assessment of Compound I and penthiopyrad on yellow rust of wheat (AUDPC % control). Conditions: AUDPC-based, 2 field trials.
Description: as §1
Fungicidal treatments containing the compound of Formula I and penthiopyrad, either individually or as a two-way mixture, were assessed against yellow rust of wheat (PUCCST) in two separate field trials. In the first trial, fungicidal treatments were applied twice at B31-32 (early curative, 2% infection at application on L3) and B37-39 (0% infection at application on L) growth stages of winter wheat (TRZAW, Fairplay variety). The treatments were part of an experimental trial designed as a randomized complete block with four replications and a plot of approximately 1×6 m. Treatments were applied at water volume of 200 L/ha, using a backpack plot sprayer (BKPCKENG, F110-015 Hardi (3) Flat fan nozzle) and pressurized at 200 kPa.
In the second trial, fungicidal treatments containing the compound of Formula I and penthiopyrad, either individually or as a two-way mixture, were applied twice at B31-32 (early curative, 5% infection on L5 at application) and B37-39 (early curative, 5% infection on L1 and L2 at application) growth stages of wheat (TRZAW, Torch variety). The treatment was part of an experimental trial designed as a randomized complete block with four replications and a plot of approximately 2×3 m. Treatments were applied at water volume of 200 L/ha, using a backpack precision plot sprayer (BKCKAIR, F110-03 Hypro (4) Flat fan nozzle) and pressurized at 300 kPa.
as §2, with “yellow” for “brown”

The test system of experiment [3] is Zymoseptoria tritici (SEPTTR). Briefly: Field assessment of Compound I and penthiopyrad on leaf blotch of wheat (AUDPC % control). Conditions: AUDPC-based, 3 field trials.
Description: as §1
Fungicidal treatments containing the compound of Formula I and penthiopyrad, either individually or as a two-way mixture, were assessed against leaf spot of wheat (SEPTTR) in three separate field trials. In the first trial, fungicidal treatments were applied at B33 (3% infection at application on L3) growth stage of winter wheat (TRZAW, Dinosor variety). The treatments were part of an experimental trial designed as a randomized complete block with four replications and a plot of approximately 1×6 m. Treatments were applied at water volume of 200 L/ha, using a backpack plot sprayer (BKPCKENG, FLATFANA nozzle) and pressurized at 200 kPa.
In the second trial, fungicidal treatments were applied twice at B32 (curative, 25% infection at application on L5) and B37-39 (5% infection at application on L3) growth stages of winter wheat (TRZAW, Consort variety). The treatments were part of an experimental trial designed as a randomized complete block with four replications and a plot of approximately 1×2 m. Treatments were applied at water volume of 200 L/ha, using a backpack plot sprayer (BKPCKAIR, Flat fan nozzle) and pressurized at 210 kPa.
In the final trial, fungicidal treatments were applied twice at B32 (protective, 15% infection at application on L6) and B37-39 (12% infection at application on L5) growth stages of winter wheat (TRZAW, Smaragd variety). The treatments were part of an experimental trial designed as a randomized complete block with four replications and a plot of approximately 2×3 m. Treatments were applied at water volume of 200 L/ha, using a backpack plot sprayer (BICYCAIR, FLATFANA nozzle) and pressurized at 220 kPa.
Disease severity (percentage of visual diseased foliage on whole plot or leaves) in […] field trials was recorded following EPPO PP1/26 guideline prescriptions. Area under the disease progress curve (AUDPC) was calculated for each plot in both trials using the sets of recorded severity data. Relative AUDPC (% control based on AUDPC) was calculated as percent of the nontreated control. Final results for the control of leaf spot of wheat by the compound of Formula I, penthiopyrad and mixtures are reported as an average of the relative AUDPC calculated over all three field trials. […]

This is an account of results in US20190297888A1, “FUNGICIDAL COMPOUNDS AND MIXTURES FOR FUNGAL CONTROL IN CEREALS” (Dow AgroSciences LLC, priority 2016, published 2019).

Regarding `CC(C)CC(C)c1sccc1NC(=O)c1cn(C)nc1C(F)(F)F` (stereo not drawn) [Penthiopyrad, N-[2-(1,3-dimethylbutyl)-3-thienyl]-1-methyl-3-(trifluoromethyl)-1H-pyrazole-4-carboxamide], the figures for the “PUCCRT % Control” value in experiment [1] (rate 125 g ai/ha) and in experiment [1] (rate 200 g ai/ha) were 84.2% and 85.1%, respectively. Moreover, the “PUCCST % Control” value in experiment [2] (rate 125 g ai/ha) worked out at 39.6%; in experiment [2] (rate 200 g ai/ha), 46.5%. Moreover, the figures for the “SEPTTR % Control” value in experiment [3] (rate 125 g ai/ha) and in experiment [3] (rate 200 g ai/ha) were 42.3% and 51.4%, respectively.
